Experimental data: patent publication EP4674965A1, “SIRNA TARGETING INHIBIN ?E, SIRNA CONJUGATE, AND MEDICAL USE THEREOF” (Tuojie Biotech (Shanghai) Co., Ltd., priority 2023, dated 2024)

How the values were obtained:
[1] = system: human INHBE; assay: Multi-concentration-point inhibitory activity against INHBE in human hepatoma cell line (Huh7), qPCR; format: cell-based; settings: for Remaining percentage of target gene mRNA expression (Huh7) (mean, %): Huh7, 24 h; for IC50: Huh7, INHBE mRNA, 24 h
From the text: (§1) After the Q-PCR assay was completed, the corresponding Ct values were obtained based on the threshold automatically set by the system. The expression of a certain gene can be relatively quantified by comparing the Ct values. Comparing Ct refers to calculating the differences in gene expression by the differences from the Ct value of the internal reference gene, which is also referred to as 2-ΔΔCt, where ΔΔCt = [(Ct target gene in experimental group - Ct internal reference in experimental group) - (Ct target gene in control group - Ct internal reference in control group)]. Inhibition rate (%) = (1 - remaining level of target gene expression) × 100%.
(§2) The results are expressed relative to the remaining percentage of human INHBE mRNA expression in cells treated with the siRNA. The IC50 value corresponds to the concentration of the siRNA used when the remaining percentage of INHBE mRNA expression is 50%.
(§3) 24 h prior to transfection, Huh7 cells were seeded into a 96-well plate at about 15,000 cells/well, with each well containing 100 µL of a culture medium. The cells were transfected with the samples using Lipofectamine RNAi MAX (ThermoFisher, 13778150) following the instruction manual of the product, with the final concentration gradients of the samples for transfection being 20 nM, 4 nM, 0.8 nM, 0.16 nM, 0.032 nM, 0.0064 nM, and 0.00128 nM. After 24 h of treatment, total cellular RNA extraction was performed using a high-throughput cellular RNA extraction kit (FG0417-L/FG0418-XL, magnetic bead method), followed by an RNA reverse transcription experiment (Takara, RR037A) and a quantitative real-time PCR (Thermo, 4444557) assay. The mRNA level of human INHBE was determined and calibrated on the basis of the GAPDH internal reference gene level.
The instruments, primer information, and result analysis method involved in this experiment were used with reference to Example 4.

[2] = system: monkey INHBE; assay: Multi-concentration-point inhibitory activity against INHBE in primary monkey hepatocytes (PCHs), qPCR; format: cell-based; settings: 24 h; for IC50: PCH, monkey INHBE mRNA
From the text: as §1, §2
as §3, with “PCH” for “Huh7”, “30,000” for “15,000”, “monkey” for “human”
In the real-time quantitative PCR assay, a probe Q-PCR assay was used. Table 15. Taqman primer information
The result analysis method and calculation method for the remaining percentage of the target mRNA expression were the same as those in Example 4.

Substance | Remaining percentage of target gene mRNA expression (Huh7) (mean, %) ([1]; 0.00128 (nM per method)) [%] | Remaining percentage of target gene mRNA expression (Huh7) (mean, %) ([1]; 0.0064 (nM per method)) [%] | Remaining percentage of target gene mRNA expression (Huh7) (mean, %) ([1]; 0.032 (nM per method)) [%] | Remaining percentage of target gene mRNA expression (Huh7) (mean, %) ([1]; 0.16 (nM per method)) [%] | Remaining percentage of target gene mRNA expression (Huh7) (mean, %) ([1]; 0.8 (nM per method)) [%] | Remaining percentage of target gene mRNA expression (Huh7) (mean, %) ([1]; 4 (nM per method)) [%] | Remaining percentage of target gene mRNA expression (Huh7) (mean, %) ([1]; 20 (nM per method)) [%] | IC50 [1] [nM] | Remaining percentage of target gene mRNA expression (PCH) (mean, %) ([2]; 0.00128 (nM per method)) [%] | Remaining percentage of target gene mRNA expression (PCH) (mean, %) ([2]; 0.0064 (nM per method)) [%] | Remaining percentage of target gene mRNA expression (PCH) (mean, %) ([2]; 0.032 (nM per method)) [%] | Remaining percentage of target gene mRNA expression (PCH) (mean, %) ([2]; 0.16 (nM per method)) [%] | Remaining percentage of target gene mRNA expression (PCH) (mean, %) ([2]; 0.8 (nM per method)) [%] | Remaining percentage of target gene mRNA expression (PCH) (mean, %) ([2]; 4 (nM per method)) [%] | Remaining percentage of target gene mRNA expression (PCH) (mean, %) ([2]; 20 (nM per method)) [%] | IC50 [2] [nM]
TJR102152: siRNA conjugate (Tables 14, 16); SS SEQ ID NO: 245, AS SEQ ID NO: 269 (sense UAAUAAUACUAACAUGUUA; antisense UAACAUGUUAGUAUUAUUAUG; conjugate ligand attached, 2'-OMe/2'-F pattern not given here) | 108.45 | 109.51 | 98.76 | 76.27 | 51.25 | 37.74 | 25.82 | 0.92 | 104.56 | 77.88 | 49.77 | 43.37 | 49.75 | 46.38 | 39.63 | 0.0302
TJR102154: siRNA conjugate (Tables 14, 16); SS SEQ ID NO: 243, AS SEQ ID NO: 267 (sense UCAAAGCUAUUUUCAUAAU; antisense AUUAUGAAAAUAGCUUUGACU; conjugate ligand attached, 2'-OMe/2'-F pattern not given here) | 103.41 | 100.81 | 91.17 | 50.85 | 32.23 | 30.29 | 20.46 | 0.176 | 85.05 | 96.98 | 72.01 | 50.20 | 47.38 | 51.47 | 58.66 | 0.04
